≈ marks a conversion by molar mass, not a printed value.
Key:
Assay type in all cases: functional
[1] = system: Staphylococcus aureus; assay: Antibacterial activity against Staphylococcus aureus ATCC25923 incubated for 16 to 20 hrs by broth microdilution method; details: time 16-20 hrs
[2] = system: Escherichia coli; assay: Antibacterial activity against Escherichia coli ATCC25922 incubated for 16 to 20 hrs by broth microdilution method; details: time 16-20 hrs
[3] = system: Enterococcus faecalis; assay: Antibacterial activity against Enterococcus faecalis ATCC29212 incubated for 16 to 20 hrs by broth microdilution method; details: time 16-20 hrs
[4] = system: Stenotrophomonas maltophilia; assay: Antibacterial activity against Stenotrophomonas maltophilia ATCC17808 incubated for 16 to 20 hrs by broth microdilution method; details: time 16-20 hrs
[5] = system: Staphylococcus aureus; assay: Antibacterial activity against drug-resistant Staphylococcus aureus clinical isolate M20 incubated for 16 to 20 hrs by broth microdilution method; details: time 16-20 hrs
[6] = system: Escherichia coli; assay: Antibacterial activity against drug-resistant Escherichia coli clinical isolate 1322 incubated for 16 to 20 hrs by broth microdilution method; details: time 16-20 hrs
[7] = system: Escherichia coli; assay: Antibacterial activity against drug-resistant Escherichia coli clinical isolate 1333 incubated for 16 to 20 hrs by broth microdilution method; details: time 16-20 hrs
[8] = system: Staphylococcus aureus; assay: Bactericidal activity against Staphylococcus aureus ATCC25923 incubated for 20 to 24 hrs; details: time 20-24 hrs
[9] = system: Staphylococcus aureus; assay: Antibacterial activity against Staphylococcus aureus ATCC25923 incubated for 20 to 24 hrs; details: time 20-24 hrs
[10] = system: Enterococcus faecalis; assay: Bactericidal activity against Enterococcus faecalis ATCC29212 incubated for 20 to 24 hrs; details: time 20-24 hrs
[11] = system: Enterococcus faecalis; assay: Antibacterial activity against Enterococcus faecalis ATCC29212 incubated for 20 to 24 hrs; details: time 20-24 hrs
[12] = system: Enterococcus faecalis; assay: Ratio of MBC to MIC for Enterococcus faecalis ATCC29212 incubated for 20 to 24 hrs; details: time 20-24 hrs
[13] = system: Escherichia coli; assay: Bactericidal activity against Escherichia coli ATCC25922 incubated for 20 to 24 hrs; details: time 20-24 hrs
[14] = system: Escherichia coli; assay: Antibacterial activity against Escherichia coli ATCC25922 incubated for 20 to 24 hrs; details: time 20-24 hrs
[15] = system: Escherichia coli; assay: Ratio of MBC to MIC for Escherichia coli ATCC25922 incubated for 20 to 24 hrs; details: time 20-24 hrs
[16] = system: Stenotrophomonas maltophilia; assay: Bactericidal activity against Stenotrophomonas maltophilia ATCC17808 incubated for 20 to 24 hrs; details: time 20-24 hrs
[17] = system: Stenotrophomonas maltophilia; assay: Antibacterial activity against Stenotrophomonas maltophilia ATCC17808 incubated for 20 to 24 hrs; details: time 20-24 hrs
[18] = system: Stenotrophomonas maltophilia; assay: Ratio of MBC to MIC for Stenotrophomonas maltophilia ATCC17808 incubated for 20 to 24 hrs; details: time 20-24 hrs
[19] = system: Staphylococcus aureus; assay: Ratio of MBC to MIC for Staphylococcus aureus ATCC25923 incubated for 20 to 24 hrs; details: time 20-24 hrs
[20] = system: Escherichia coli; assay: Antibacterial activity against Escherichia coli ATCC25922 under 10^4 CFU/ml of bacterial inoculum culture by absorbance based assay
[21] = system: Escherichia coli; assay: Antibacterial activity against Escherichia coli ATCC25922 under 10^5 CFU/ml of bacterial inoculum culture by absorbance based assay
[22] = system: Escherichia coli; assay: Antibacterial activity against Escherichia coli ATCC25922 under 10^6 CFU/ml of bacterial inoculum culture by absorbance based assay
[23] = system: Escherichia coli; assay: Antibacterial activity against Escherichia coli ATCC25922 under 10^7 CFU/ml of bacterial inoculum culture by absorbance based assay
[24] = system: Staphylococcus aureus; assay: Induction of resistance development in Staphylococcus aureus ATCC25923 treated daily with continuous passaging measured after 13 passages by absorbance based assay; details: ATCC25923, 312 h, time 13 day
[25] = system: Staphylococcus aureus; assay: Induction of resistance development in Staphylococcus aureus ATCC25923 treated daily with continuous passaging measured after 16 passages by absorbance based assay; details: ATCC25923, 384 h, time 16 day

SMILES | MIC [1] [µg/mL] | MIC [2] [µg/mL] | MIC [3] [µg/mL] | MIC [4] [µg/mL] | MIC [5] [µg/mL] | MIC [6] [µg/mL] | MIC [7] [µg/mL] | MBC [8] [µg/mL] | MIC [9] [µg/mL] | MBC [10] [µg/mL] | MIC [11] [µg/mL] | Ratio [12] | MBC [13] [µg/mL] | MIC [14] [µg/mL] | Ratio [15] | MBC [16] [µg/mL] | MIC [17] [µg/mL] | Ratio [18] | further results
CC[C@H]1OC(=O)C[C@@H](O)[C@H](C)[C@@H](O[C@@H]2O[C@H](C)[C@@H](O)[C@H](N(C)C)[C@H]2O)[C@@H](CCN(C)Cc2cn(-c3cnc4ccccc4c3)nn2)C[C@@H](C)C(=O)/C=C/C(C)=C/[C@@H]1CN(C)Cc1ccccc1 | 0.5 (≈ 0.541 µM) | 1 (≈ 1.08 µM) | 1 (≈ 1.08 µM) | 1 (≈ 1.08 µM) | 0.5 (≈ 0.541 µM) | 1 (≈ 1.08 µM) | 2 (≈ 2.16 µM) | > 32 | 16 (≈ 17.3 µM) | 8 (≈ 8.66 µM) | 4 (≈ 4.33 µM) | 2 | 4 (≈ 4.33 µM) | 1 (≈ 1.08 µM) | 4 | 16 (≈ 17.3 µM) | 4 (≈ 4.33 µM) | 4 | –
CC[C@H]1OC(=O)C[C@@H](O)[C@H](C)[C@@H](O[C@@H]2O[C@H](C)[C@@H](O)[C@H](N(C)C)[C@H]2O)[C@@H](CCNCc2cn(-c3cnc4ccccc4c3)nn2)C[C@@H](C)C(=O)/C=C/C(C)=C/[C@@H]1CNCc1ccc(C)cc1 | 0.5 (≈ 0.549 µM) | 1 (≈ 1.1 µM) | 1 (≈ 1.1 µM) | 1 (≈ 1.1 µM) | 0.5 (≈ 0.549 µM) | 1 (≈ 1.1 µM) | 4 (≈ 4.39 µM) | 1 (≈ 1.1 µM) | 0.5 (≈ 0.549 µM) | 8 (≈ 8.79 µM) | 1 (≈ 1.1 µM) | 2 | 1 (≈ 1.1 µM) | 0.5 (≈ 0.549 µM) | 2 | 4 (≈ 4.39 µM) | 2 (≈ 2.2 µM) | 2 | Ratio [19]: 2
CC(=O)NC[C@H]1CN(c2ccc(N3CCOCC3)c(F)c2)C(=O)O1 [LINEZOLID] | – | > 32 | – | > 32 | – | – | – | – | – | – | – | – | – | – | – | – | – | – | MIC [20]: < 0.063 µg/mL; MIC [21]: < 0.063 µg/mL; MIC [22]: < 0.063 µg/mL; MIC [23]: < 0.063 µg/mL; MIC [24]: 8 µg/mL (≈ 23.7 µM); MIC [25]: 16 µg/mL (≈ 47.4 µM)

From ChEMBL document CHEMBL6074711, “Design, Synthesis, and Activity Evaluation of C-23-Modified 5-O-Mycaminosyltylonolide Derivatives” (ACS Med Chem Lett, 2024)
